From PubChem BioAssay (NCI)
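Following 48 hours of exposure in 96-well plates, responses at five concentrations were used to interpolate endpoints linearly. GI50 is the concentration that inhibits growth by half. At the TGI there is no net growth.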

Key:
Assay in all cases: growth of human tumour cells (NCI), 48 h
HOP-92 NSCLC = test system: HOP-92 NSCLC
EKVX NSCLC = test system: EKVX NSCLC
OVCAR-5 ovarian = test system: OVCAR-5 ovarian
HT29 colon = test system: HT29 colon
A549 NSCLC = test system: A549 NSCLC
SF-539 CNS = test system: SF-539 CNS
OVCAR-8 ovarian = test system: OVCAR-8 ovarian
DU-145 prostate = test system: DU-145 prostate
TK-10 renal = test system: TK-10 renal
BT-549 breast = test system: BT-549 breast

SMILES | GI50 (HOP-92 NSCLC) [µM] | TGI (HOP-92 NSCLC) [µM] | GI50 (EKVX NSCLC) [µM] | TGI (EKVX NSCLC) [µM] | GI50 (OVCAR-5 ovarian) [µM] | TGI (OVCAR-5 ovarian) [µM] | GI50 (HT29 colon) [µM] | TGI (HT29 colon) [µM] | GI50 (A549 NSCLC) [µM] | TGI (A549 NSCLC) [µM] | GI50 (SF-539 CNS) [µM] | TGI (SF-539 CNS) [µM] | GI50 (OVCAR-8 ovarian) [µM] | TGI (OVCAR-8 ovarian) [µM] | GI50 (DU-145 prostate) [µM] | TGI (DU-145 prostate) [µM] | GI50 (TK-10 renal) [µM] | TGI (TK-10 renal) [µM] | TGI (BT-549 breast) [µM] | GI50 (BT-549 breast) [µM]
C=CCC(N[C@H](CO)c1ccccc1)c1cn(Cc2ccccc2Cl)c(=O)n(Cc2ccccc2Cl)c1=O (some centres undefined) | 3.92 | 23.1 | 16.1 | 96.4 | 25.6 | > 100 | 11 | > 100 | 15.3 | > 100 | 15 | 32.5 | 15.2 | > 100 | 23.5 | 95.5 | 46.6 | > 100 | 7.01 | –
C/C=C1/CC(C)C(C)(O)C(=O)OCC2C(O)CN3CCC(OC1=O)C23 (centres undefined) | – | > 100 | – | > 100 | – | > 100 | – | > 100 | – | > 100 | – | > 100 | – | > 100 | – | > 100 | – | > 100 | > 100 | –
Cn1cc(-c2cnn3c(N)c(Br)c(C4CCCNC4)nc23)cn1 (centres undefined) | 5.51 | > 68.5 | 10.4 | 70 | 6.96 | > 73 | 4.19 | > 73 | 17.3 | > 100 | 0.285 | 3.88 | 5.87 | > 100 | 3.2 | 65 | 3.69 | > 83 | 32.5 | 0.922
CC(=O)NNc1nc(C)c(C(/C=C/c2ccccc2O)=N/N=C(N)N)s1 | – | > 100 | – | > 100 | – | > 100 | – | > 100 | – | > 100 | – | > 100 | – | > 100 | – | > 100 | – | > 100 | > 100 | –
Nc1nc(/C=C\c2ccccc2)nc(N2CCN(c3ccccc3)CC2)n1 | 21 | 93.3 | 59.1 | > 100 | 58.7 | > 100 | 18 | 41.8 | 31.5 | > 100 | 41.1 | > 100 | 35.4 | > 100 | 39.5 | > 100 | 28.4 | 81.1 | > 100 | 45
Cc1cc(Nc2cc(N3CCN(C)CC3)nc(/C=C/c3ccccc3)n2)n[nH]1 | 0.476 | 1.95 | 1.21 | > 7.24 | 0.866 | > 9.04 | 0.542 | > 6.77 | 0.501 | > 10 | 0.718 | 2.05 | 1.68 | > 10 | 1.04 | > 10 | 0.797 | > 5.11 | > 8.73 | 1.12
Oc1c(Cl)cc(Cl)c2ccc(Cn3cc(-c4ccc(C(F)(F)F)cc4)nn3)nc12 | 1.9 | 5.82 | 5.8 | 19.5 | 2.27 | 7.59 | 2.46 | 6.75 | 16.5 | 38.6 | 1.52 | 2.94 | 2.75 | 11.5 | 1.7 | 3.33 | 1.95 | 4.22 | 5.22 | 1.94
N#Cc1cnc(Nc2cc(NC[C@H]3CNCCO3)c(C(F)(F)F)cn2)cn1 | 8.95 | 26.6 | 17.5 | 59.4 | 9.37 | 67.1 | 25.7 | 92 | 20.6 | > 100 | 0.669 | 17.3 | 3.69 | 93 | 8.07 | 40.2 | 3.66 | 36 | 32 | 5.62
COC(=O)c1cc2c3ccccc3n3c2c(n1)-c1[nH]c2ccccc2c(=O)c1C3 | 11.4 | 29.3 | 79 | > 100 | > 100 | > 100 | > 100 | > 100 | > 100 | > 100 | 20.3 | 77.6 | > 100 | > 100 | > 100 | > 100 | 23 | 45.9 | 63.2 | 22.6
O=C1C=CC(=O)c2c(O)c3c(c(O)c21)C[C@H](O)[C@H](O)[C@@H]3O | – | 2.87 | – | 6.15 | – | 17.2 | – | 5.83 | – | 9.39 | – | 9.16 | – | 6.59 | – | 6.87 | – | 3.27 | 2.81 | –
CCCCCCCCCCCCOC1C(CNC(=O)C2OC3OC(C)(C)OC3C2NC(=O)CN2CCN(c3ccc(OC)cc3)CC2)OC2OC(C)(C)OC21 (centres undefined) | 3.17 | 12.2 | 5.46 | 17 | 2.52 | 7.5 | 2.12 | 5.12 | 3.18 | 18.2 | 6.09 | 22 | 3.91 | 12.9 | 4.56 | 15.6 | 3.96 | 13.4 | 17.4 | 6.19
